Measured values as given in a compilation of properties of binary mixtures (doi:10.1016/j.molliq.2020.113457).

Test: xn = mol fraction of the nth substance listed
Details: 101 kPa

CCCC[n+]1ccn(C)c1.F[B-](F)(F)F + C=CC(=O)OC
x1 = 1
Details | speed of sound [m/s] | viscosity [mPa·s]
293.15 K | 1576.9 | 127.6
298.15 K | 1565.8 | 98.9
308.15 K | 1542.7 | 58.4
318.15 K | 1518 | 38.72

C=CC(=O)OC + CCCC[n+]1ccn(C)c1.F[B-](F)(F)F
Details | speed of sound [m/s] | viscosity [mPa·s]
293.15 K, x2 = 0 | 1204.7 | 0.502
293.15 K, x2 = 0.0694 | 1238.9 | 0.966
293.15 K, x2 = 0.1889 | 1296 | 3.853
293.15 K, x2 = 0.239 | 1318.8 | 6.24
293.15 K, x2 = 0.3354 | 1360.5 | 12.75
293.15 K, x2 = 0.4317 | 1399.7 | 21.82
293.15 K, x2 = 0.5005 | 1426 | 29.86
293.15 K, x2 = 0.5693 | 1451 | 39.21
293.15 K, x2 = 0.6532 | 1479.7 | 52.4
293.15 K, x2 = 0.737 | 1506.4 | 67.4
293.15 K, x2 = 0.7927 | 1523 | 78.5
293.15 K, x2 = 0.8484 | 1538.7 | 90.5
298.15 K, x2 = 0.0694 | 1218.7 | 0.725
298.15 K, x2 = 0.1387 | 1252.9 | 1.415
298.15 K, x2 = 0.1889 | 1276.8 | 2.577
298.15 K, x2 = 0.239 | 1300 | 4.295
298.15 K, x2 = 0.3354 | 1342.7 | 9.16
298.15 K, x2 = 0.4317 | 1382.7 | 16.07
298.15 K, x2 = 0.5005 | 1409.6 | 22.26
298.15 K, x2 = 0.5693 | 1435.3 | 29.5
298.15 K, x2 = 0.6532 | 1464.7 | 39.74
298.15 K, x2 = 0.737 | 1492.2 | 51.5
298.15 K, x2 = 0.7927 | 1509.3 | 60.2
298.15 K, x2 = 0.8484 | 1525.6 | 69.6
298.15 K, x2 = 0.9242 | 1546.4 | 83.5
303.15 K, x2 = 0 | 1162.3 | 0.428
303.15 K, x2 = 0.0694 | 1198.4 | 0.555
303.15 K, x2 = 0.1387 | 1233.4 | –
303.15 K, x2 = 0.1889 | 1257.7 | 1.493
303.15 K, x2 = 0.239 | 1281.1 | 2.654
303.15 K, x2 = 0.5005 | 1393.8 | 16.05
303.15 K, x2 = 0.5693 | 1420.5 | 21.63
303.15 K, x2 = 0.6532 | 1451.2 | 29.58
303.15 K, x2 = 0.737 | 1479.5 | 38.8
303.15 K, x2 = 0.7927 | 1496.9 | 45.62
303.15 K, x2 = 0.8484 | 1514 | 53
303.15 K, x2 = 0.9242 | 1534.4 | 63.9
308.15 K, x2 = 0 | 1139.1 | 0.392
308.15 K, x2 = 0.0694 | 1176.1 | 0.448
308.15 K, x2 = 0.1387 | 1211.5 | –
308.15 K, x2 = 0.1889 | 1236.2 | –
308.15 K, x2 = 0.239 | 1260.5 | –
308.15 K, x2 = 0.3354 | 1305.3 | 3.796
308.15 K, x2 = 0.4317 | 1347.7 | 7.6
308.15 K, x2 = 0.5005 | 1376.1 | 11.15
308.15 K, x2 = 0.5693 | 1404.1 | 15.41
308.15 K, x2 = 0.6532 | 1435.8 | 21.55
308.15 K, x2 = 0.737 | 1465.1 | 28.73
308.15 K, x2 = 0.7927 | 1483.3 | 34.08
308.15 K, x2 = 0.9242 | 1521 | 48.5
313.15 K, x2 = 0.0694 | 1155.4 | 0.378
313.15 K, x2 = 0.1889 | 1216.6 | –
313.15 K, x2 = 0.3354 | 1286.1 | 2.165
313.15 K, x2 = 0.4317 | 1329.6 | 5.02
313.15 K, x2 = 0.5005 | 1359.4 | 7.79
313.15 K, x2 = 0.5693 | 1388.1 | 11.15
313.15 K, x2 = 0.6532 | 1420.6 | 16.05
313.15 K, x2 = 0.737 | 1452.4 | 21.85
313.15 K, x2 = 0.7927 | 1471.1 | 26.2
313.15 K, x2 = 0.8484 | 1488.1 | 30.93
313.15 K, x2 = 0.9242 | 1510.3 | 38.01
318.15 K, x2 = 0.0694 | 1134.5 | 0.355
318.15 K, x2 = 0.1387 | 1170.8 | –
318.15 K, x2 = 0.1889 | 1195.7 | –
318.15 K, x2 = 0.239 | 1220 | –
318.15 K, x2 = 0.4317 | 1310.6 | 3.27
318.15 K, x2 = 0.5005 | 1341.6 | 5.53
318.15 K, x2 = 0.5693 | 1371.6 | 8.34
318.15 K, x2 = 0.737 | 1437.5 | 17.48
318.15 K, x2 = 0.7927 | 1457.2 | 21.23
318.15 K, x2 = 0.8484 | 1475.3 | 25.34
